Data on 24 molecules can be found in ChEMBL document CHEMBL3864191 (ACS Med Chem Lett, 2016).

The nature of series [1]: Cytotoxicity against human DU145 cells assessed as reduction in cell viability after 72 hrs by MTT assay. The format is functional, cell-based, DU-145. Conditions: Homo sapiens, DU-145, 72 h. In general terms: Tetrazolium assays rely on reduction of a dye to a coloured formazan, in cell work by metabolically active cells.
Series [2] in a line: Cytotoxicity against mouse CT26 cells assessed as reduction in cell viability after 72 hrs by MTT assay. Conditions: Mus musculus, CT26, 72 h. The format is functional, cell-based.
For the next series, the system named is NCI60. The series can be described thus: Cytotoxicity against human NCI60 cells assessed as cell growth inhibition up to 10 uM after 48 hrs by SRB assay. The format is functional, cell-based.
Series [3] can be described thus: cells. Conditions: Homo sapiens, MCF7, 72 h.
Description: Cytotoxicity against human MCF7 cells assessed as reduction in cell viability after 72 hrs by MTT assay
Series [4] can be described thus: cells. Conditions: Homo sapiens, HCT-116, 72 h.
Description: Cytotoxicity against human HCT116 cells assessed as reduction in cell viability after 72 hrs by MTT assay
Series [5] has as its target Induced myeloid leukemia cell differentiation protein Mcl-1 (Homo sapiens, UniProt Q07820). Put plainly: Inhibition of FAM-Bid binding to human MCL1 expressed in Escherichia coli BL21 after 30 mins by fluorescence polarization assay.
Series [6] has as its target Apoptosis regulator Bcl-2 (Homo sapiens, UniProt P10415). The series can be described thus: Inhibition of FAM-Bid binding to human BCL2 expressed in Escherichia coli BL21 after 30 mins by fluorescence polarization assay. (In fluorescence polarisation assays a small probe gives low polarisation when free and higher when bound to something large.)
Series [7] can be described thus: Cytotoxicity against HEK293T cells assessed as reduction in cell viability at 0.33 to 100 uM after 72 hrs by MTT assay. Conditions: human, hek-293t. Format: toxicity, cell-based.
The nature of series [8]: Cytotoxicity against African green monkey Vero cells assessed as reduction in cell viability at 0.33 to 100 uM after 72 hrs by MTT assay. The settings on record: chlorocebus sabaeus. Format: toxicity, cell-based.

Activity calls are given as the source filed them. The rule behind the calls is not given here.

Apoptosis regulator Bcl-2, sequence (P10415 whole entry): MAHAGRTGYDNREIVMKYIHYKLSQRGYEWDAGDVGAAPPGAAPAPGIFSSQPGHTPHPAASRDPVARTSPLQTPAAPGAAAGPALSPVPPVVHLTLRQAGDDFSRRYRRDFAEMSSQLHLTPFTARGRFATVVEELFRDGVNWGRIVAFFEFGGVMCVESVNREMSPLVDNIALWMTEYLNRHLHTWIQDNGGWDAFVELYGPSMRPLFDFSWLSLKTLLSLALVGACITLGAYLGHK
Induced myeloid leukemia cell differentiation protein Mcl-1, sequence (Q07820 whole entry): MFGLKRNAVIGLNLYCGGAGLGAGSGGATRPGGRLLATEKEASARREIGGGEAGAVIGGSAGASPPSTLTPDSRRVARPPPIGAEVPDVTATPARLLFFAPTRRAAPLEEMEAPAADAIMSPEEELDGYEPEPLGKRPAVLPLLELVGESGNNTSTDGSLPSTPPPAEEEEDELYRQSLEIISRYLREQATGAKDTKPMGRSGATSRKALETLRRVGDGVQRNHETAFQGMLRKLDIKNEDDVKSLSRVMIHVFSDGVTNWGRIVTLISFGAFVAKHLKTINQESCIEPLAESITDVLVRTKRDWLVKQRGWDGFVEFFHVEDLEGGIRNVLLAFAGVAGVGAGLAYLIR

As for `Cc1cc2c(c(O)c1-c1c(C)cc3c(c1O)/C(=C/Nc1ccc(C(C)(C)C)cc1)C(=O)C(O)=C3C(C)C)/C(=C/Nc1ccc(C(C)(C)C)cc1)C(=O)C(O)=C2C(C)C`, the IC50 in [1] is more than 100 µM; in [2] it was 12.8 µM; in “cells [3]”, more than 100 µM; in “cells [4]” it was more than 100 µM. Besides, the “growth inhibition (GI)” value with NCI60 is “Active”.
With `COC(=O)[C@@H](N/C=C1\C(=O)C(O)=C(C(C)C)c2cc(C)c(-c3c(C)cc4c(c3O)/C(=C/N[C@H](C(=O)OC)C(C)C)C(=O)C(O)=C4C(C)C)c(O)c21)C(C)C`, the concentration for half-maximal inhibition (IC50) in [1] was 12.1 µM; in [2], 5.85 µM; in “cells [3]”, 77.3 µM; in “cells [4]” it was 77.1 µM.
On to `Cc1cc2c(c(O)c1-c1c(C)cc3c(c1O)/C(=C/NCCCCC(=O)O)C(=O)C(O)=C3C(C)C)/C(=C/NCCCCC(=O)O)C(=O)C(O)=C2C(C)C`, for which the IC50 in series [1] amounted to 20.7 µM; in [2] it was 4.46 µM; in series [5], 0.478 µM; in series [6], 0.458 µM; in “cells [3]”, 15.9 µM; in “cells [4]”, 22.2 µM. The Ki was determined as 0.085 µM in series [5] and 0.171 µM in [6]. In addition, the Activity entry in series [7] and in series [8] was “Non-Toxic” in each case.
Take `Cc1cc2c(c(O)c1-c1c(C)cc3c(c1O)/C(=C/NCc1ccc4c(c1)OCO4)C(=O)C(O)=C3C(C)C)/C(=C/NCc1ccc3c(c1)OCO3)C(=O)C(O)=C2C(C)C`: the 50% inhibitory concentration (IC50) in [1] was 29.2 µM; in [2], more than 100 µM; in the series “cells [3]”, more than 100 µM; in the series “cells [4]”, 8.3 µM.
In series [5], `COC(=O)CCCN/C=C1\C(=O)C(O)=C(C(C)C)c2cc(C)c(-c3c(C)cc4c(c3O)/C(=C/NCCCC(=O)OC)C(=O)C(O)=C4C(C)C)c(O)c21` (stereo in doubt; (-)-16) showed an IC50 of 0.937 µM and an inhibition constant Ki of 0.178 µM. In [6], this molecule registered an IC50 of 0.375 µM and a Ki of 0.131 µM.
In the case of `Cc1cc2c(c(O)c1-c1c(C)cc3c(c1O)/C(=C/N[C@H]1C[C@@H]4C[C@H]([C@@H]1C)C4(C)C)C(=O)C(O)=C3C(C)C)/C(=C/N[C@H]1C[C@@H]3C[C@H]([C@@H]1C)C3(C)C)C(=O)C(O)=C2C(C)C`, the IC50 (in series [1]; in series [2]; in the series “cells [3]”; in “cells [4]”) was more than 100 µM in each case.
With `Cc1cc2c(c(O)c1-c1c(C)cc3c(c1O)/C(=C/NC(C)(C)C(C)(C)C)C(=O)C(O)=C3C(C)C)/C(=C/NC(C)(C)C(C)(C)C)C(=O)C(O)=C2C(C)C`, the IC50 in series [1] was more than 100 µM; in [2], 5.4 µM; in the series “cells [3]”, more than 100 µM; in “cells [4]”, more than 100 µM. Further, the “growth inhibition (GI)” value in the series on NCI60 is “Active”.
With `COC(=O)CCN/C=C1\C(=O)C(O)=C(C(C)C)c2cc(C)c(-c3c(C)cc4c(c3O)/C(=C/NCCC(=O)OC)C(=O)C(O)=C4C(C)C)c(O)c21`, the IC50 worked out at 9.47 µM in series [1]; 4.25 µM in series [2]; 2.96 µM in series [5]; 0.286 µM in [6]; 5.64 µM in the series “cells [3]”; 5.24 µM in “cells [4]”. For the same molecule, the Ki in series [5] came to 0.579 µM; in [6], 0.09 µM. Also, the Activity result in series [7] and in series [8] was “Non-Toxic” each time.
For the molecule `Cc1cc2c(c(O)c1-c1c(C)cc3c(c1O)/C(=C/NCCS(=O)(=O)O)C(=O)C(O)=C3C(C)C)/C(=C/NCCS(=O)(=O)O)C(=O)C(O)=C2C(C)C`, the IC50 stood at 28.9 µM in series [1], 3.19 µM in series [2], 15.9 µM in the series “cells [3]” and 48.9 µM in “cells [4]”.
As for `Cc1cc2c(c(O)c1-c1c(C)cc3c(c1O)/C(=C/NCCCS(=O)(=O)O)C(=O)C(O)=C3C(C)C)/C(=C/NCCCS(=O)(=O)O)C(=O)C(O)=C2C(C)C`, the IC50 in [1] worked out at 36 µM; in [2], 35.6 µM; in the series “cells [3]”, 17.7 µM; in the series “cells [4]”, 43.1 µM.
With `Cc1cc2c(c(O)c1-c1c(C)cc3c(c1O)/C(=C/NC14CC5CC(CC(C5)C1)C4)C(=O)C(O)=C3C(C)C)/C(=C/NC13CC4CC(CC(C4)C1)C3)C(=O)C(O)=C2C(C)C`, the IC50 (in [1]; in series [2]; in “cells [3]”; in “cells [4]”) was more than 100 µM each time.
`COC(=O)[C@H](CCSC)N/C=C1\C(=O)C(O)=C(C(C)C)c2cc(C)c(-c3c(C)cc4c(c3O)/C(=C/N[C@@H](CCSC)C(=O)OC)C(=O)C(O)=C4C(C)C)c(O)c21`: the IC50 is 17.7 µM in series [1], more than 100 µM in series [2], more than 100 µM in “cells [3]” and 0.52 µM in “cells [4]”.
With `Cc1cc2c(c(O)c1-c1c(C)cc3c(c1O)/C(=C/NCCC(=O)O)C(=O)C(O)=C3C(C)C)/C(=C/NCCC(=O)O)C(=O)C(O)=C2C(C)C`, the IC50 in series [1] is 21.6 µM; in series [2], 67.3 µM; in “cells [3]” it was 19.4 µM; in “cells [4]” it was 21 µM. For the same molecule, the Activity entry in series [7] and in [8] was “Non-Toxic” each time.
As for `Cc1cc2c(c(O)c1-c1c(C)cc3c(c1O)/C(=C/NCCCC(=O)O)C(=O)C(O)=C3C(C)C)/C(=C/NCCCC(=O)O)C(=O)C(O)=C2C(C)C`, the IC50 in series [1] worked out at 18.1 µM; in [2], 28.8 µM; in series [5], 0.661 µM; in series [6] it was 0.596 µM; in “cells [3]”, 20 µM; in “cells [4]”, 32.3 µM. The Ki was found to be 0.094 µM in series [5] and 0.235 µM in series [6]. The Activity result in series [7] and in series [8] was “Non-Toxic” in each case.
With `Cc1cc2c(c(O)c1-c1c(C)cc3c(c1O)/C(=C/NCc1ccco1)C(=O)C(O)=C3C(C)C)/C(=C/NCc1ccco1)C(=O)C(O)=C2C(C)C`, the IC50 in series [1] is 15.5 µM; in series [2] it was more than 100 µM; in “cells [3]” it was more than 100 µM; in the series “cells [4]”, 42.4 µM. Moreover, the “growth inhibition (GI)” value in the series on NCI60 was “Active”.
Consider `COC(=O)CCCN/C=C1\C(=O)C(O)=C(C(C)C)c2cc(C)c(-c3c(C)cc4c(c3O)/C(=C/NCCCC(=O)OC)C(=O)C(O)=C4C(C)C)c(O)c21` (stereo in doubt; 16), for which the “growth inhibition (GI)” value in the series with NCI60 is “Active”.
`Cc1cc2c(c(O)c1-c1c(C)cc3c(c1O)/C(=C/NC1CCC(C(C)(C)C)CC1)C(=O)C(O)=C3C(C)C)/C(=C/NC1CCC(C(C)(C)C)CC1)C(=O)C(O)=C2C(C)C` (centres undefined): the IC50 is more than 100 µM in series [1], 21.7 µM in series [2], more than 100 µM in “cells [3]” and more than 100 µM in “cells [4]”.
On to `Cc1cc2c(c(O)c1-c1c(C)cc3c(c1O)/C(=C/NC(C)(C)C)C(=O)C(O)=C3C(C)C)/C(=C/NC(C)(C)C)C(=O)C(O)=C2C(C)C`, for which the IC50 is 17.2 µM in series [1], 12.8 µM in series [2], more than 100 µM in “cells [3]” and more than 100 µM in the series “cells [4]”. Moreover, the “growth inhibition (GI)” value in the series with NCI60 was “Active”.
Regarding `Cc1cc2c(c(O)c1-c1c(C)cc3c(c1O)/C(=C/NCc1ccccc1)C(=O)C(O)=C3C(C)C)/C(=C/NCc1ccccc1)C(=O)C(O)=C2C(C)C`, the IC50 is 21.9 µM in series [1], more than 100 µM in series [2], more than 100 µM in “cells [3]” and 83.1 µM in “cells [4]”. In the series on NCI60, the “growth inhibition (GI)” value is “Active”.
On to `COC(=O)CCCCCCN/C=C1\C(=O)C(O)=C(C(C)C)c2cc(C)c(-c3c(C)cc4c(c3O)/C(=C/NCCCCCCC(=O)OC)C(=O)C(O)=C4C(C)C)c(O)c21`, for which the IC50 in series [1] was determined as 11.4 µM; in series [2] it was 5.59 µM; in “cells [3]”, 8.95 µM; in the series “cells [4]” it was 13.1 µM. The Activity entry in series [7] and in [8] was “Non-Toxic” each time. Further, the “growth inhibition (GI)” value in the series with NCI60 was “Active”.
In [5], `COC(=O)CCCN/C=C1\C(=O)C(O)=C(C(C)C)c2cc(C)c(-c3c(C)cc4c(c3O)/C(=C/NCCCC(=O)OC)C(=O)C(O)=C4C(C)C)c(O)c21` (stereo in doubt; (+)-16) returned a half-maximal inhibitory concentration (IC50) of 1.25 µM and a Ki of 0.24 µM. In series [6], this molecule came in with an IC50 of 0.452 µM and a Ki of 0.167 µM.
Regarding `COC(=O)c1ccccc1N/C=C1\C(=O)C(O)=C(C(C)C)c2cc(C)c(-c3c(C)cc4c(c3O)/C(=C/Nc3ccccc3C(=O)OC)C(=O)C(O)=C4C(C)C)c(O)c21`, the IC50 in series [1] was 20.9 µM; in series [2] it was 21.4 µM; in the series “cells [3]” it was 24.7 µM; in “cells [4]” it was 37.3 µM.
Turning to `Cc1cc2c(c(O)c1-c1c(C)cc3c(c1O)/C(=C/NCCCCCC(=O)O)C(=O)C(O)=C3C(C)C)/C(=C/NCCCCCC(=O)O)C(=O)C(O)=C2C(C)C`, the IC50 in series [1] amounted to 27.5 µM; in series [2], 4.54 µM; in the series “cells [3]”, 17.7 µM; in the series “cells [4]”, 23.1 µM. Besides, the Activity entry in series [7] and in [8] was “Non-Toxic” in each case.
Regarding `Cc1cc2c(c(O)c1-c1c(C)cc3c(c1O)/C(=C/NC1CCCCC1)C(=O)C(O)=C3C(C)C)/C(=C/NC1CCCCC1)C(=O)C(O)=C2C(C)C`, the IC50 was 20.7 µM in [1], 25.2 µM in series [2], more than 100 µM in the series “cells [3]” and 80.3 µM in “cells [4]”. The “growth inhibition (GI)” value in the series with NCI60 was “Active”.

As a reminder, the IC50 is the point on the concentration scale where inhibition reaches its midpoint. The Ki is a dissociation constant, usually derived from enzyme kinetics or from competition with a known ligand.
